Data taken from patent US4067996A, “Phenylacetic acid derivatives” (Synthelabo, priority 1974, dated 1978).
Where two headings read alike, the source gives them in different places.

What was measured:
[1] = Acute toxicity in mice on oral administration; type: in vivo; details: mouse, in vivo, read-out: LD 50 (acute toxicity)
Method: (§1) The acute toxicity was studied by oral administration to CDl mice of both sexes. The 50% lethal doses (LD 50) were determined graphically.
(§2) In a second series of experiments, the experimental technique was modified slightly: the compounds studied are dispersed in olive oil instead of being dissolved in water.

cholesterol in the serum = test: Hypocholesterolaemic action in rats on oral administration (7 days); type: in vivo, male albino rats of the CDl race (Charles River); details: daily for 7 days
Method: (§3) The reference substances chosen were clofibrate or ethyl 2-p-chlorophenoxy-2-methyl-propionate, and halofenate or 2-acetamido-ethyl2-p-chlorophenyl-2-m-trifluoromethylphenoxy-acetate.
(§4) The hypocholesterolaemic action was determined on male albino rats of the CDl race (Charles River) weighing on average 250 g and fed normally, the rats being divided into batches each of 10 animals. Daily doses of one of the compounds studied were administered orally for 7 days. On the 8th day, the contents of cholesterol and triglycerides in the blood were determined and compared with those of animals of the untreated comparison group. In this way it was possible graphically to evaluate, for each compound, the 30% active dose (AD 30), that is to say the daily dose which causes a 30% reduction in the content of cholesterol or of triglycerides in the serum.
(§5) *AD 30 = daily dose which causes a 30% reduction in the content of
as §2

[2] = tested on: triglycerides in the serum; test: Hypolipaemic activity (triglycerides) in rats on oral administration (7 days); type: in vivo, male albino rats of the CDl race (Charles River); details: daily for 7 days
Method: as §3, §4, §5, §2

CDl mice = test: Acute toxicity in mice on oral administration; type: in vivo; details: Table III, second series, dispersed in olive oil
Method: as §1, §2

[3] = tested on: content of lipids (triglycerides and cholesterol) in the blood; test: Hypolipaemic and hypocholesterolaemic effect compared with reference substances (summary); type: in vivo, rats
Method: as §3, §4, §2

[4] = Table II, first series (dissolved in water)
[5] = Table III, second series, dispersed in olive oil

Row | SMILES | LD50 ([1]; Table II, first series) [mg/kg] | AD 30, cholesterol (daily dose which causes a 30% reduction in serum cholesterol) (cholesterol in the serum; [4]) [mg/kg] | AD 30, triglycerides (daily dose which causes a 30% reduction in serum triglycerides) [2, 4] [mg/kg] | LD50 [1, 5] [mg/kg] | AD 30, cholesterol (daily dose which causes a 30% reduction in serum cholesterol) (cholesterol in the serum; [5]) [mg/kg] | AD 30, triglycerides (daily dose which causes a 30% reduction in serum triglycerides) [2, 5] [mg/kg] | LD 50 (acute toxicity) (CDl mice) | times more active than clofibrate ([3]; relative to clofibrate) | times more active than halofenate ([3]; relative to halofenate)
1 | NC(=O)C(Oc1ccc(F)c(C(F)(F)F)c1)c1ccc(Cl)cc1 (centres unmarked) [SL D 063] | > 2000 | > 100 | 20 |  |  |  |  |  | 
2 | CN1CCC(OC(=O)C(Oc2ccc(F)c(C(F)(F)F)c2)c2ccc(Cl)cc2)CC1 (centres unmarked) [SL-D.123, 1-Methyl-piperidinyl-4 2-(4-fluoro-3-trifluoromethyl-phenoxy)-2-(4-chloro-phenyl)-acetate] |  |  |  | > 2000 | 50 | 20 |  |  | 
3 | O=C(O)C(Oc1ccc(F)c(C(F)(F)F)c1)c1ccc(Cl)cc1 (centres unmarked) [SL C 151, 2-(4-Chloro-phenyl)-2-(4-fluoro-3-trifluoromethyl-phenoxy)-acetic acid] | 2000 | 50 | 12 |  |  |  |  |  | 
4 | CCOC(=O)C(C)(C)Oc1ccc(Cl)cc1 [Clofibrate, ethyl 2-p-chlorophenoxy-2-methyl-propionate, reference compound] | 1300 | 160 | 200 |  |  |  |  |  | 
5 | CC(=O)NCCOC(=O)C(Oc1ccc(F)c(C(F)(F)F)c1)c1ccc(Cl)cc1 (centres unmarked) [SL C 149, 2-Acetylamino-ethyl 2-(4-chloro-phenyl)-2-(4-fluoro-3-trifluoromethyl-phenoxy)-acetate] | 2000 | 17 | 12 |  | 30 | 20 | 2,000 mg/kg | about 15 times | four
6 | CN(C)C(=O)CCCOC(=O)C(Oc1ccc(F)c(C(F)(F)F)c1)c1ccc(Cl)cc1 (centres unmarked) [SL-D.126, N,N-Dimethyl-3-aminocarbonyl-propyl 2-(4-fluoro-3-trifluoromethyl-phenoxy)-2-(4-chloro-phenyl)-acetate] |  |  |  | > 2000 | 70 | 20 |  |  | 
7 | O=C(NCCO)C(Oc1ccc(F)c(C(F)(F)F)c1)c1ccc(Cl)cc1 (centres unmarked) [SL D 064, 2-(4-Fluoro-3-trifluoromethyl-phenoxy)-2-(4-chloro-phenyl)-N-(2-hydroxy-ethyl)-acetamide] | > 2000 | > 100 | 20 |  |  |  |  |  | 
8 | CCOC(=O)C(Oc1ccc(F)c(C(F)(F)F)c1)c1ccc(Cl)cc1 (centres unmarked) [SL C 150, Ethyl 2-(4-chloro-phenyl)-2-(4-fluoro-3-trifluoromethyl-phenoxy)-acetate] | > 2500 | 20 | 25 |  |  |  |  |  | 
9 | CC(=O)NCCOC(=O)C(Oc1ccc(F)c(C(F)(F)F)c1)c1ccc(F)cc1 (centres unmarked) [SL D 097, 2-acetylamino-ethyl 2-(4-fluoro-3-trifluoromethyl-phenoxy)-2-(4-fluoro-phenyl)acetate] | > 2000 | > 100 | 25 |  |  |  |  |  | 
10 | CC(=O)NCCOC(=O)C(Oc1cccc(C(F)(F)F)c1)c1ccc(Cl)cc1 (centres unmarked) [Halofenate, 2-acetamido-ethyl2-p-chlorophenyl-2-m-trifluoromethylphenoxy-acetate, reference compound] | 1800 | 70 | 50 |  |  |  |  |  | 
11 | O=C(OCc1cccnc1)C(Oc1ccc(F)c(C(F)(F)F)c1)c1ccc(Cl)cc1 (centres unmarked) [SL D 065] | > 2000 | 55 | 35 |  |  |  |  |  | 
12 | CC1CC(OC(=O)C(Oc2ccc(F)c(C(F)(F)F)c2)c2ccc(Cl)cc2)CC(C)(C)C1 (centres unmarked) [SL-D.128, 3,3,5-Trimethyl-cyclohexyl-1 2-(4-fluoro-3-trifluoromethyl-phenoxy)-2-(4-chloro-phenyl)-acetate] |  |  |  | > 2000 | 80 | 10 |  |  | 
